According to US11590139B2, “Substituted aminopurine compounds, compositions thereof, and methods of treatment therewith” (Signal Pharmaceuticals, LLC, priority 2014, dated 2023):

Each compound was assayed on Lox-IMVI melanoma cell line (assay: Lox-IMVI anti-proliferative assay (growth inhibition, Cell Titer-Glo)). Conditions: Homo sapiens; Lox-IMVI anti-proliferative assay, IC50 activity level; read-out: Activity.
Type: cell-based, human
How it was run: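 First, compound was dispensed as a 10-point 3-fold series (0.5 nM–10 μM, duplicate). Then cells in RPMI + 10% FBS were added and grown 72 h at 37 °C with 0.2% DMSO. Finally, ATP luminescence was read and IC50 calculated versus DMSO control.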

Row | SMILES | IC50 [nM]
1 | NC(=O)[C@H]1CC[C@@H](n2c(Nc3c(F)cc(F)cc3Cl)nc3cnc(N[C@@H]4CCCC[C@H](O)C4)nc32)CC1 [Example 437, (1S,4s)-4-(8-(2-chloro-4,6-difluorophenylamino)-2-((1R,3S)-3-hydroxycycloheptylamino)-9H-purin-9-yl)cyclohexanecarboxamide] | > 1000
2 | NC(=O)[C@H]1CC[C@@H](n2c(Nc3c(F)cc(Cl)cc3F)nc3cnc(N[C@@H]4CCCC[C@H](O)C4)nc32)CC1 [Example 438, (1S,4s)-4-(8-(4-chloro-2,6-difluorophenylamino)-2-((1R,3S)-3-hydroxycycloheptylamino)-9H-purin-9-yl)cyclohexanecarboxamide] | > 1000
3 | NC(=O)[C@H]1CC[C@@H](n2c(Nc3c(Cl)cc(Cl)cc3Cl)nc3cnc(N[C@@H]4CCCC[C@H](O)C4)nc32)CC1 [Example 439, (1S,4s)-4-(2-((1R,3S)-3-hydroxycycloheptylamino)-8-(2,4,6-trichlorophenylamino)-9H-purin-9-yl)cyclohexanecarboxamide] | > 1000
4 | NC(=O)[C@H]1CC[C@@H](n2c(Nc3ccc(Cl)c(F)c3F)nc3cnc(N[C@@H]4CCCC[C@H](O)C4)nc32)CC1 [Example 440, (1S,4s)-4-(8-(4-chloro-2,3-difluorophenylamino)-2-((1R,3S)-3-hydroxycycloheptylamino)-9H-purin-9-yl)cyclohexanecarboxamide] | > 1000
5 | CC(C)Nc1ncc2nc(Nc3c(F)cc(C#N)cc3F)n([C@H]3CC[C@@H](C(N)=O)CC3)c2n1 [Example 441, (1s,4s)-4-(8-(4-cyano-2,6-difluorophenylamino)-2-(isopropylamino)-9H-purin-9-yl)cyclohexanecarboxamide] | 500 to 1000
6 | NC(=O)[C@H]1CC[C@@H](n2c(Nc3c(Cl)cc(C(F)(F)F)cc3Cl)nc3cnc(NC4CCOCC4)nc32)CC1 [Example 442, (1s,4s)-4-(8-(2,6-dichloro-4-(trifluoromethyl)phenylamino)-2-(tetrahydro-2H-pyran-4-ylamino)-9H-purin-9-yl)cyclohexanecarboxamide] | 250 to 500
7 | N#Cc1ccc(Cl)c(Nc2nc3cnc(NC4CCOCC4)nc3n2[C@H]2CC[C@@H](C(N)=O)CC2)c1Cl [Example 443, (1s,4s)-4-(8-(2,6-dichloro-3-cyanophenylamino)-2-(tetrahydro-2H-pyran-4-ylamino)-9H-purin-9-yl)cyclohexanecarboxamide] | > 1000
8 | NC(=O)[C@H]1CC[C@@H](n2c(Nc3c(Cl)cc(Cl)cc3Cl)nc3cnc(N[C@H]4CCCC[C@@H](O)C4)nc32)CC1 [Example 444, (1R,4s)-4-(2-((1S,3R)-3-hydroxycycloheptylamino)-8-(2,4,6-trichlorophenylamino)-9H-purin-9-yl)cyclohexanecarboxamide] | > 1000
9 | NC(=O)[C@H]1CC[C@@H](n2c(Nc3c(F)cc(Cl)cc3F)nc3cnc(N[C@@H]4CCO[C@H](CO)C4)nc32)CC1 [Example 445, (1S,4s)-4-(8-(4-chloro-2,6-difluorophenylamino)-2-((2S,4R)-2-(hydroxymethyl)tetrahydro-2H-pyran-4-ylamino)-9H-purin-9-yl)cyclohexanecarboxamide] | 250 to 500
10 | NC(=O)[C@H]1CC[C@@H](n2c(Nc3c(F)cc(F)cc3F)nc3cnc(N[C@@H]4CCO[C@H](CO)C4)nc32)CC1 [Example 446, (1S,4s)-4-(2-((2S,4R)-2-(hydroxymethyl)tetrahydro-2H-pyran-4-ylamino)-8-(2,4,6-trifluorophenylamino)-9H-purin-9-yl)cyclohexanecarboxamide] | > 1000
11 | N#Cc1ccc(F)c(Nc2nc3cnc(NC4CCOCC4)nc3n2[C@H]2CC[C@@H](C(N)=O)CC2)c1F [Example 447, (1s,4s)-4-(8-(3-cyano-2,6-difluorophenylamino)-2-(tetrahydro-2H-pyran-4-ylamino)-9H-purin-9-yl)cyclohexanecarboxamide] | > 1000
12 | N#Cc1cc(F)c(Nc2nc3cnc(N[C@H]4CCCC[C@H](O)C4)nc3n2[C@H]2CC[C@@H](C(N)=O)CC2)c(Cl)c1 [Example 448, (1R,4s)-4-(8-(2-chloro-4-cyano-6-fluorophenylamino)-2-((1S,3S)-3-hydroxycycloheptylamino)-9H-purin-9-yl)cyclohexanecarboxamide] | > 1000
13 | N#Cc1cc(Cl)c(Nc2nc3cnc(N[C@H]4CCCC[C@H](O)C4)nc3n2[C@H]2CC[C@@H](C(N)=O)CC2)c(Cl)c1 [Example 449, (1R,4s)-4-(8-(2,6-dichloro-4-cyanophenylamino)-2-((1S,3S)-3-hydroxycycloheptylamino)-9H-purin-9-yl)cyclohexanecarboxamide] | > 1000
14 | NC(=O)[C@H]1CC[C@@H](n2c(Nc3c(Cl)cc(Cl)cc3Cl)nc3cnc(NCC(F)(F)CO)nc32)CC1 [Example 450, (1s,4s)-4-(2-(2,2-difluoro-3-hydroxypropylamino)-8-(2,4,6-trichlorophenylamino)-9H-purin-9-yl)cyclohexanecarboxamide] | > 1000
15 | NC(=O)[C@H]1CC[C@@H](n2c(Nc3c(F)cc(Cl)cc3Cl)nc3cnc(NCC(F)(F)CO)nc32)CC1 [Example 451, (1s,4s)-4-(8-(2,4-dichloro-6-fluorophenylamino)-2-(2,2-difluoro-3-hydroxypropylamino)-9H-purin-9-yl)cyclohexanecarboxamide] | > 1000
16 | NC(=O)[C@H]1CC[C@@H](n2c(Nc3c(Cl)cc(F)cc3Cl)nc3cnc(NCC(F)(F)CO)nc32)CC1 [Example 452, (1s,4s)-4-(8-(2,6-dichloro-4-fluorophenylamino)-2-(2,2-difluoro-3-hydroxypropylamino)-9H-purin-9-yl)cyclohexanecarboxamide] | > 1000
17 | NC(=O)[C@H]1CC[C@@H](n2c(Nc3c(F)cc(Cl)cc3F)nc3cnc(NCC(F)(F)CO)nc32)CC1 [Example 453, (1s,4s)-4-(8-(4-chloro-2,6-difluorophenylamino)-2-(2,2-difluoro-3-hydroxypropylamino)-9H-purin-9-yl)cyclohexanecarboxamide] | > 1000
18 | NC(=O)[C@H]1CC[C@@H](n2c(Nc3c(Cl)cc(C(F)(F)F)cc3Cl)nc3cnc(N[C@@H]4CCC[C@H](O)C4)nc32)CC1 [Example 454, (1S,4s)-4-(8-(2,6-dichloro-4-(trifluoromethyl)phenylamino)-2-((1R,3S)-3-hydroxycyclohexylamino)-9H-purin-9-yl)cyclohexanecarboxamide] | 500 to 1000
19 | N#Cc1cc(Cl)c(Nc2nc3cnc(N[C@@H]4CCC[C@H](O)C4)nc3n2[C@H]2CC[C@@H](C(N)=O)CC2)c(Cl)c1 [Example 455, (1S,4s)-4-(8-(2,6-dichloro-4-cyanophenylamino)-2-((1R,3S)-3-hydroxycyclohexylamino)-9H-purin-9-yl)cyclohexanecarboxamide] | < 250
20 | N#Cc1cc(F)c(Nc2nc3cnc(N[C@@H]4CCC[C@H](O)C4)nc3n2[C@H]2CC[C@@H](C(N)=O)CC2)c(Cl)c1 [Example 456, (1S,4s)-4-(8-(2-chloro-4-cyano-6-fluorophenylamino)-2-((1R,3S)-3-hydroxycyclohexylamino)-9H-purin-9-yl)cyclohexanecarboxamide] | 500 to 1000
21 | N#Cc1cc(F)c(Nc2nc3cnc(N[C@@H]4CCC[C@H](O)C4)nc3n2[C@H]2CC[C@@H](C(N)=O)CC2)c(F)c1 [Example 457, (1S,4s)-4-(8-(4-cyano-2,6-difluorophenylamino)-2-((1R,3S)-3-hydroxycyclohexylamino)-9H-purin-9-yl)cyclohexanecarboxamide] | > 1000
